PMC7438494 (Communications Biology, 2020)
“And” between values parts separate entries of the source, which are not always exact repeats. Identical values can stand only once.

Columns and labels:
hERG channel = conditions: read-out: IC50 for hERG; cited from earlier work
[1] = target: yeast mitochondrial ATP synthase (yeast SMP) (Saccharomyces cerevisiae, UniProt P00854+P61829); experiment: biochemical; conditions: for ATP hydrolysis activity, Exp 1-3: SMP data
human mitoplasts = experiment: Membrane potential of human mitoplasts, fluorescence quenching of Rhodamine 123; type: biochemical; conditions: high concentrations
Description: The membrane potential was assessed by measuring fluorescence quenching of Rhodamine 123 at 488 nm excitation and 525 nm emission in a buffer containing 0.65 M mannitol, 20 mM bis-tris-propane, 2 mM tris-phosphate, 0.3 mM EGTA, pH 6.8 with Rhodamine 123 dissolved in methanol (1.0 µM). Yeast mitochondria were energized with ethanol (0.4% v/v), whereas human mitochondria were energized with glutamate/malate (5 mM/2.5 mM).

[2] = right-hand regression, fits the SMP data

In the case of COc1nc2ccc(Br)cc2cc1[C@@H](c1ccccc1)[C@@](O)(CCN(C)C)c1cccc2ccccc12 [BDQ, Bedaquiline], the IC50 (hERG channel) is listed as ~1700 nM, the EC50 [1] is listed as 1280 nM and the IC50 ([1]; IC50 ± SEM, ATP hydrolysis, yeast SMP) is listed as 1280 ± 250 nM. For the same molecule, the “ATP hydrolysis activity, Exp 1-3” value ([1]; BDQ 0.0372 uM) was 0.9086 and 0.8616 and 0.8497, the “ATP hydrolysis activity, Exp 1-3” value ([1]; BDQ 0.0744 uM) was 0.9524 and 0.7514 and 0.8742 and the “ATP hydrolysis activity, Exp 1-3” value ([1]; BDQ 0.3722 uM) was 0.7241 and 0.758 and 0.7412. The “ATP hydrolysis activity, Exp 1-3” value ([1]; BDQ 0.7445 uM) was 0.71 and 0.6674 and 0.5944, the “ATP hydrolysis activity, Exp 1-3” value ([1]; BDQ 1.489 uM) was 0.489 and 0.4879 and 0.5368 and the “ATP hydrolysis activity, Exp 1-3” value ([1]; BDQ 3.7225 uM) was 0.2859 and 0.2741 and 0.3273. The “ATP hydrolysis activity, Exp 1-3” value ([1]; BDQ 7.4449 uM) was 0.2679 and 0.4735 and 0.3345, the “ATP hydrolysis activity, Exp 1-3” value ([1]; BDQ 18.6123 uM) was 0.1786 and 0.215 and 0.285 and the “ATP hydrolysis activity, Exp 1-3” value ([1]; BDQ 37.2245 uM) was 0.1804 and 0.145 and 0.1981. For the same molecule, the “Hillslope, four parameter logistic fit, second regression” value [1, 2] was -1.0668, the “max, four parameter logistic fit, second regression” value [1, 2] was 0.8923 and the “min, four parameter logistic fit, second regression” value [1, 2] was 0.1853. For the same molecule, the “effect on membrane potential, human mitoplasts” value (human mitoplasts) was “partial effect”.
